In the experiment the target is T1, Sm2OGD3 (Salvia miltiorrhiza, UniProt A0A8K1XH31).
T1 construct: gene TIIAS; full-length ORF (1119 nt, 373 aa printed) in pET-30a, E. coli BL21(DE3), crude extract
The experiment is described as follows: UPLC / LC-MS product assay, crude recombinant E. coli extract, initial rates. It counts as biochemical. The conditions noted are these: 2-oxoglutarate, ferrous sulfate, L-ascorbate; pH 8.0, 30 °C.

T1 sequence (A0A8K1XH31 entry or part of it): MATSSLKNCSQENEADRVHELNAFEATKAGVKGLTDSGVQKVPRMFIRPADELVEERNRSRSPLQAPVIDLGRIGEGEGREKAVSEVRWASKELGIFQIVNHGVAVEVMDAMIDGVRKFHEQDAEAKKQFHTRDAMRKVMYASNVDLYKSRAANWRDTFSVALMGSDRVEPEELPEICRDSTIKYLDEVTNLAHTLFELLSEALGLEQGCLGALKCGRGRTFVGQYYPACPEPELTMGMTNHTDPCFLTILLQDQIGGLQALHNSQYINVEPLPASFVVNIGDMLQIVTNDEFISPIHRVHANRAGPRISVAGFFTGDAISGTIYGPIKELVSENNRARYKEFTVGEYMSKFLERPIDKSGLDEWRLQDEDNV

Consider `CC1=CCCc2c1ccc1c2C(=O)C(=O)C2=C1OCC2C` (stereo not shown) [THT, 1,2,15,16-tetrahydrotanshinone I], for which the Km (in general, the concentration of substrate that gives half-maximal velocity) worked out at 20.9 µM.
